Results published in patent EP0514275A1, “Thiopyranopyrrole derivatives, their preparation and pharmaceutical compositions containing them” (RHONE-POULENC RORER S.A., priority 1991, dated 1992).

How the values were obtained:
[1] = Analgesic activity (technique of Siegmund E. et al.); type: in vivo; conditions: po, read-out: DE50 mg/kg p.o.
Text: II a notamment été mis en évidence, par l'étude de plusieurs produits que les nouveaux dérivés de thiopyranopyrrole manifestent une activité analgésique dans la technique de Siegmund E. et coll., Proc. Soc. Exp. Biol. Med., 95, 729 (1957).

[2] = test system: septide (agoniste de la substance P); assay: Inhibition of septide-induced increase in capillary permeability (technique of A. Saria et al. adapted to the mouse); type: in vivo, souris; conditions: sc, capillary permeability increase caused by septide, read-out: DE50 mg/kg s.c.
Text: L'étude de plusieurs dérivés de thiopyranopyrrole de formule générale (I) dans la technique de A. Saria et coll., Arch. Pharmacol.,324, 212-218 (1983) adaptée à la souris a permis de mettre en évidence un effet inhibiteur de l'augmentation de la perméabilité capillaire entraîné par le septide (agoniste de la substance P, ce qui témoigne d'une activité anti-inflammatoire : […]

[3] = test system: substance P; assay: Antagonism of substance P-induced hypotension (technique of C.A. Maggi et al.); type: in vivo; conditions: rat; 1 mg/kg i.v./mn for 5 mn; hypotension induced by i.v. injection of 250 mg/kg of substance P
Description: L'injection de substance P chez l'animal provoque une hypotension. Les produits étudiés dans la technique de C.A. Maggi et coll., J. Auton. Pharmac., 7, 11-32 (1987) manifestent un effet antagoniste chez le rat vis-à-vis de cette hypotension. Notamment les produits administrés à la dose de 1 mg/kg i.v./mn, pendant 5 mn, provoquent un antagonisme de l'hypotension induite par une injection i.v. de […] de substance P.

| Structure (SMILES) | ED50 [1] [mg/kg] | ED50 [2] [mg/kg] | % d'inhibition de l'hypotension [3] [%] |
| --- | --- | --- | --- |
| CN(C)CCCOc1ccccc1CC(=O)N1C[C@@H]2[C@H](C1)[S@+]([O-])CCC2(c1ccccc1)c1ccccc1 (racemic) [Exemple 7, {[(diméthylamino-3 propoxy-2)phényl]acétyl}-6 diphényl-4,4 oxyde-1 perhydrothiopyrano [2,3-c]pyrrole-(1RS,4aRS,7aRS)] | 3 |  |  |
| CN(C)CCCOc1ccccc1CC(=O)N1C[C@@H]2[C@H](C1)[S@+]([O-])CCC2(c1ccccc1)c1ccccc1 (single isomer, unassigned) [Exemple 8, (-)-{[(diméthylamino-3 propoxy-2)phényl]-2 acétyl}-6 diphényl-4,4 oxyde-1 perhydrothiopyrano [2,3-c]pyrrole-(1R*,4aR*,7aR*)] |  | 0.05 | 100 |
| COc1ccccc1[C@H](C)C(=O)N1C[C@@H]2[C@H](C1)[S@+]([O-])CCC2(c1ccccc1)c1ccccc1 (single isomer, unassigned) [Exemple 10, [(-)-(méthoxy-2 phényl)-2 propionyl-(S) ] -6 diphényl-4,4 oxyde-1 erhydrothiopyrano[2,3-c]pyrrole-(1R*, 4aR*, 7aR*)] | 1.7 | < 0.1 | 100 |
